In patent US11752155B2, “Treatment of autism spectrum disorders, obsessive-compulsive disorder and anxiety disorders” (Rugen Holdings (Cayman) Limited, priority 2016, dated 2023):
pIC50: −log10 of the molar value. “Also recorded” adds a separate entry of the source. Where two headings read alike, the source gives them in different places.

Key:
[1] = tested on: wild type littermate mice; assay: Grooming Test in wild type littermates of Sapap3 and Shank3 complete knockout mice; type: in vivo, mouse; details: for effect on grooming on Day 3 / effect on grooming on Day 5: 3 mg/kg IP on Day 1, wild type littermates; for effect on grooming on Day 1: 3 mg/kg IP, wild type littermates; for acute effect on grooming on Day 1: wild type littermates of Sapap3 knockout mice, dose-dependent
Protocol: (§1) Animals. The breeding conditions and genotyping methods for Sapap3 and Shank3 complete knockout mice were the same as described in Welch et al. (Nature 2007, 448(7156):894-900) and in Wang et al. (Nat. Commun. 2016, 7:11459), respectively. Homozygous knockout mice and littermate wild type mice of both genders were used at 4 to 8 weeks of age.
(§2) Compound formulation. The test compounds were dissolved in a small volume of dimethyl sulfoxide (DMSO) and diluted in an aqueous solution of 2-hydroxypropyl-beta-cyclodextrin (HP-β-CD) and administered IP. Dosing volume was 10 mL/kg. At 20 minutes after dosing, the mice were subjected to the behavioral test as described below.
(§3) Testing room and apparatus. The test room was maintained under the same conditions as the colony rooms, except the mice were housed in conventional shoe-box cages with food, water, and nesting materials. Animals were housed in the test room 48-72 hours prior to testing, in order to permit the mice to fully acclimate to the test room and conventional housing cages before testing. Tests were conducted in white polyvinyl-fluoride hard-sided foam test arenas (20×20×12 cm). The arenas were indirectly illuminated by dimmable LED light bars placed level with the arena floor and 30 cm away from the external wall of the test arena. This permitted the internal area of the arena to be evenly illuminated at approximately 40 lux. The illumination levels where the mice were housed before testing were about 80-100 lux.
(§4) Testing procedure. Mice were carefully placed into the test arenas 20 minutes after compound administration. Animals were given free exploration of the arena for 10 minutes, after which they were gently sprayed with 4 quick pumps of a water mist (total water volume approximated 1.5-1.7 mL). Mice were then allowed an additional 10 minutes to self-groom and engage in other behaviors before being removed from the arena. All tests were videotaped using cameras mounted above the testing arena and were saved to digital media format using Noldus Media Player software (Noldus Information Technologies, Leesburg, Va.). The mice were only tested once in the acute studies and were repeatedly tested in the sustained effect studies.
(§5) Quantitation of grooming bouts. Analyses of the video recordings were conducted with TopScan behavioral recognition software (Cleversys Inc, Reston, Va.). Configurations were made which scored time spent in grooming. […] These settings permitted automated scoring of grooming by TopScan that corresponded well to manual-scoring of these behaviors by a trained blinded observer using Noldus Observer XT9 (Noldus Information Technologies), with an average corrected kappa of 0.925 (range 0.807-0.983).
(§6) Statistical analyses. Data are presented as means and standard error of the means (SEMs). Analyses were conducted using SPSS 23 (IBM SPSS Statistics, Chicago, Ill.). Time spent in grooming behavior (seconds) over the 10-minute pre- and post-spray time blocks were analyzed with repeated measures analyses of variance (RMANOVA). The pre- and post-spray times were used for the within subject effects and the genotype and compound treatment condition were used as the between subject effects. In sustained effect studies, days were also used for a within subject effect. Some analyses of total groom time were performed in Prism 7.01 (GraphPad Software, La Jolla, Calif.), with one-way ANOVAs to compare genotypes on Day 1 or with RMANOVAs to compare treatment groups within the same genotype across days. Treatments with compounds were compared independently with the vehicle. All post-hoc comparisons were performed with Bonferroni corrections for multiple comparisons to avoid a Type I error. In all cases, a p<0.05 was considered significant.
The wild type littermates of the Sapap3 knockout and Shank3 complete knockout mice were retested after Day 1 compound administration to determine whether the sustained effects were unique to the knockout mice. […]

Sapap3 knockout mice = assay: Grooming Test in Sapap3 knockout mice; type: in vivo, mouse; details: for tachyphylaxis with repeated weekly dosing: dosed IP on Days 1, 15, 22, 29; for acute effect on excessive self-grooming: single IP dose, Day 1
Protocol: as §1, §2, §3, §4, §5, §6
Next, the effect of two subunit-selective NR2B antagonists administered as a single IP dose and assessed 20 minutes postdose was studied in the Sapap3 knockout mice (n=6-10 mice per treatment group). […]

[2] = Clearance of compound from plasma after IP dosing in mice; type: in vivo, mouse
[3] = tested on: Shank3 complete knockout mice; assay: Grooming Test in Shank3 complete knockout mice; type: in vivo, mouse; details: for acute effect on grooming: single IP dose, 20 min postdose, Day 1
Protocol: as §1, §2, §3, §4, §5
Statistical analyses. Data are presented as means and standard error of the means (SEMs). Analyses were conducted using SPSS 23 (IBM SPSS Statistics, Chicago, Ill.). Time spent in grooming behavior (seconds) over the 10-minute pre- and post-spray time blocks were analyzed with repeated measures analyses of variance (RMANOVA). The pre- and post-spray times were used for the within subject effects and the genotype and compound treatment condition were used as the between subject effects. In sustained effect studies, days were also used for a within subject effect. […]
The amount of time mice spent grooming in a novel environment was quantified in Shank3 complete knockout mice (Wang et al. Nat. Commun. 2016, 7:11459) and their wild type littermates for 10 minutes. […]

human NR1/NR2A = human NR1/NR2A (Homo sapiens (Human), UniProt Q05586+Q12879); assay: NR2A antagonist activity: calcium influx (Fluo-4) assay in HEK293 cells; type: cell-based; details: Table 1.1B; read-out: NR2A IC50
Protocol: Activation of the NR2A or NR2B subtype of NMDA receptor with glutamate as an agonist and glycine co-agonist on these cells results in calcium influx, which can be monitored with fluorescent indicator Fluo-4.
For experiments, the cells were seeded onto poly-D-lysine-coated 96-well black plates with clear bottom (Corning) at a density of ˜50,000 cells/well. After overnight culture, the growth medium was removed from the wells and the cells were incubated at 37° C. for 60 minutes in Hanks buffer containing 4 μM fluo-4-AM (Invitrogen) and 0.1% bovine serum albumin (BSA). After dye-loading, the cells were washed three times with Hanks buffer and incubated for 10 minutes at room temperature with various concentrations of test compounds prepared in Hanks buffer with 0.1% BSA. The cell plates were placed onto an FDSS Cell fluorescence reader (Hamamatsu). After 20 seconds of reading background fluorescence, agonist glutamate at final 100 µM and co-agonist glycine at final 50 μM were added to the cells to activate the receptor, and the resulting fluorescence changes were recorded and quantified. Based on the changes in fluorescence intensity, the pharmacological effect of test compounds was analyzed and the IC50 values derived from a non-linear least squares fitting of the concentration-dependent response to a standard logistic equation using Prism (Graphpad Software, Inc.): Amplitude=Max Amplitude/(1+(IC50/[antagonist])^n).

CYP2D6 = CYP2D6 (Homo sapiens (Human), UniProt P10635); assay: CYP P450 enzyme inhibition in pooled human liver microsomes (dextromethorphan probe); type: in vitro ADME; details: for inhibition at 10 min, 10 µM: human, pooled human liver microsomes, pH 7.4, probe dextromethorphan, 5 μM, read-out: CYP2D6 Inhibiton at 10 μM
Protocol: Test compound concentration-dependent response studies were performed in triplicate.

human NR1/NR2B = human NR1/NR2B (Homo sapiens (Human), UniProt Q05586+Q13224); assay: NR2B antagonist activity: calcium influx (Fluo-4) assay in HEK293 cells; type: cell-based; details: read-out: NR2B IC50
In short: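 HEK293 cells expressing NR1/NR2A or NR1/NR2B, loaded with fluo-4-AM, preincubated 10 min at room temperature with compound in Hanks buffer/0.1% BSA.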

[4] = single dose 1 mg/kg IP on Day 1
[5] = single dose 3 mg/kg IP on Day 1

CYP2D6, sequence (P10635 whole entry): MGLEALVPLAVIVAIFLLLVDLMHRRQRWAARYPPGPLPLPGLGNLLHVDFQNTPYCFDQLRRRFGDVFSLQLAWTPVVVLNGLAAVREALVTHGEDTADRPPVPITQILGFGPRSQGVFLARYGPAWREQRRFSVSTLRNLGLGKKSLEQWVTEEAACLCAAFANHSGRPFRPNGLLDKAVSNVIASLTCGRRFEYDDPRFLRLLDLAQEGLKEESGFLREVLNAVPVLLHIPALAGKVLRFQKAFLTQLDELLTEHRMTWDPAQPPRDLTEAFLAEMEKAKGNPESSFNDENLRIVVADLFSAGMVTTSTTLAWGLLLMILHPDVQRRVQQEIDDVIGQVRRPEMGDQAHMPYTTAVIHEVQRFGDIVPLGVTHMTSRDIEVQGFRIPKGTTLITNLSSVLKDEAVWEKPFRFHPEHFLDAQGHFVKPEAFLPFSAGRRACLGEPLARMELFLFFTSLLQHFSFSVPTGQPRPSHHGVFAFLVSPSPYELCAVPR
human NR1/NR2B, sequence (Q13224 27-1484, other chains not shown): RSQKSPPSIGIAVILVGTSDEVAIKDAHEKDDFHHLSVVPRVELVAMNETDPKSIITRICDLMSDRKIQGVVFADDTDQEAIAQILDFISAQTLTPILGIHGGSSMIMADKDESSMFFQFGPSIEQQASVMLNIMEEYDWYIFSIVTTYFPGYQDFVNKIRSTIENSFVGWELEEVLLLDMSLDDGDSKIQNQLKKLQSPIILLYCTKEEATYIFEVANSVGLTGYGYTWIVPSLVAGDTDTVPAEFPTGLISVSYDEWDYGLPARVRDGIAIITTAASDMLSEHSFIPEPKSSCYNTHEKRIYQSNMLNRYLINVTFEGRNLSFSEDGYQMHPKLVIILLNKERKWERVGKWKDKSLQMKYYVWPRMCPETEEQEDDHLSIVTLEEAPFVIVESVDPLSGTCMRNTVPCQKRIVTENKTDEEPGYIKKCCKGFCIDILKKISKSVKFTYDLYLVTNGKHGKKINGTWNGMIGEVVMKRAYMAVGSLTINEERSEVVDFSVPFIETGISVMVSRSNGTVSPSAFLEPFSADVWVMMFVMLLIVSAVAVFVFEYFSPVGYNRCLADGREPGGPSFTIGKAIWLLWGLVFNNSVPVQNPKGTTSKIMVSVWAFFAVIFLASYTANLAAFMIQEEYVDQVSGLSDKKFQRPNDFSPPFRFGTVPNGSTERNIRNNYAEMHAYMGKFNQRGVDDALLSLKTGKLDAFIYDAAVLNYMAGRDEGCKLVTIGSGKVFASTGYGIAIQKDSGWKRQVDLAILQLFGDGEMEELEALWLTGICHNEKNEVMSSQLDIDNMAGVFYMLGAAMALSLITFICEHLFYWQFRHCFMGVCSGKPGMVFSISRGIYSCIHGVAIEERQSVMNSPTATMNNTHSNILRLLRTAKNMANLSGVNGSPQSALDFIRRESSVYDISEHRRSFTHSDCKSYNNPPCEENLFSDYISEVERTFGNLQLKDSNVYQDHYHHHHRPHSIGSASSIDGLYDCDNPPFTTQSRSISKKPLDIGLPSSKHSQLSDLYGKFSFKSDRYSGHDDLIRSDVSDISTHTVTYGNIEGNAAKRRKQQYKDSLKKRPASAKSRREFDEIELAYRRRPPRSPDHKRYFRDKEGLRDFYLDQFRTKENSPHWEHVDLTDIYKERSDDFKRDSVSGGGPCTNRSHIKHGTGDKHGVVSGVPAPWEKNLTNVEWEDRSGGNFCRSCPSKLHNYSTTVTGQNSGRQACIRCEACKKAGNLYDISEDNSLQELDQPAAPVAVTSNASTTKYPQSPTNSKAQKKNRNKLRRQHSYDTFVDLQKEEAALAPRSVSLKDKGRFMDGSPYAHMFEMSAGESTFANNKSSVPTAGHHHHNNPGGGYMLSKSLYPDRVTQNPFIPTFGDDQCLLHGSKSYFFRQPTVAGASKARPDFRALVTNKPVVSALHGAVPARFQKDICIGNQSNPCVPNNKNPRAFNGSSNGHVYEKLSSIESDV
human NR1/NR2A, sequence (Q12879 23-1464, other chains not shown): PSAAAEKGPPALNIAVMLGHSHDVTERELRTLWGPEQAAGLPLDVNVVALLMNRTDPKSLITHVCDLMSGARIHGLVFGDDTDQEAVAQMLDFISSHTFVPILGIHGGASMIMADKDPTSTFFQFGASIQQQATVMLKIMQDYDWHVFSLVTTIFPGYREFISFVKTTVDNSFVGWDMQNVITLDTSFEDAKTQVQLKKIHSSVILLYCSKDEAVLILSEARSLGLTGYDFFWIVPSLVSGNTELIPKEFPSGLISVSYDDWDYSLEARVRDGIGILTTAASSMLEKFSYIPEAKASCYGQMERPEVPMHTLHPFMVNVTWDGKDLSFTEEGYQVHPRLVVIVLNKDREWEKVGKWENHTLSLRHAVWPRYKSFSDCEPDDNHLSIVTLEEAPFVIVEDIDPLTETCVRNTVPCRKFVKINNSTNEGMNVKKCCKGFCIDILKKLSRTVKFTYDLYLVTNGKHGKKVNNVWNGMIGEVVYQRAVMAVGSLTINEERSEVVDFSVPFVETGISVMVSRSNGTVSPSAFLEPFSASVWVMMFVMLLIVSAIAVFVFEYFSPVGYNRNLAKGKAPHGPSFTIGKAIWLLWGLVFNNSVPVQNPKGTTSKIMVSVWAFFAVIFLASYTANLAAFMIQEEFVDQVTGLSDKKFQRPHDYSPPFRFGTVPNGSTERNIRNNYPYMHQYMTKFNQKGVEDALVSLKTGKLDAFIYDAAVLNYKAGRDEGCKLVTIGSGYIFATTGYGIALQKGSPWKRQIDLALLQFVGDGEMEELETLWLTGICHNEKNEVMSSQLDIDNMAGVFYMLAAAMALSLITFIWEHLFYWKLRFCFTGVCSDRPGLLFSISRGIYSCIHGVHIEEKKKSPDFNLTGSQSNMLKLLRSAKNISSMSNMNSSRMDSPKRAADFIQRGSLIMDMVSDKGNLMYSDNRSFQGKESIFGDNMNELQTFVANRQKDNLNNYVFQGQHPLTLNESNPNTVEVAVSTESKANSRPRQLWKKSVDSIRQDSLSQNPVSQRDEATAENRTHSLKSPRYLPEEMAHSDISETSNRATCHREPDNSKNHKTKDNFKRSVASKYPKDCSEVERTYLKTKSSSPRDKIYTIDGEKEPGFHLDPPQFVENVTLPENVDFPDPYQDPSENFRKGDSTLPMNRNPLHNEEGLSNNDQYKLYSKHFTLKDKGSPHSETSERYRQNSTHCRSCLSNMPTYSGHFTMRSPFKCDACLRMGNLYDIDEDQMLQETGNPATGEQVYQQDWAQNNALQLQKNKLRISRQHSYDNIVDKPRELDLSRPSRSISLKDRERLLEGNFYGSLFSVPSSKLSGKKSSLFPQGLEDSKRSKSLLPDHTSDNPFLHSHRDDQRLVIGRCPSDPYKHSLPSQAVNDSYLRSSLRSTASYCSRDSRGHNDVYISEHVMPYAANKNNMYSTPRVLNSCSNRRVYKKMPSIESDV

time to clearance of the compound from plasma [2] | inhibition at 10 min, 10 µM (CYP2D6) [%] | pIC50 (human NR1/NR2B; Table 1.1B) | pIC50 (human NR1/NR2B; Table 1.3B) | pIC50 (human NR1/NR2B; Table 1.4B) | SMILES | effect on grooming on Day 3 [1] | effect on grooming on Day 5 [1] | effect on grooming on Day 1 [1] | acute effect on grooming on Day 1 [1] | tachyphylaxis with repeated weekly dosing (Sapap3 knockout mice) | significantly reduced grooming through Day (Sapap3 knockout mice; first dose 3 mg/kg IP on Day 1) [days] | acute effect on excessive self-grooming (Sapap3 knockout mice; 20 min postdose) | significantly reduced grooming through Day (Sapap3 knockout mice; [4]) [days] | acute effect on grooming [3] | significantly reduced grooming through Day [3, 5] [days] | further results
about 8 hours |  |  |  |  | FC(F)c1ccc(C(F)(F)CN2CCC(Nc3ncnc4[nH]ccc34)CC2)cc1 [C-179^A′] | significantly reduced grooming | comparable to the level in the vehicle-treated group | significantly reduced grooming | significantly reduced grooming | no tachyphylaxis developed; also recorded: tachyphylaxis was not observed | 8 | significantly reduced grooming; also recorded: markedly reduced excessive self-grooming | 5 | significantly reduced grooming | 33 | magnitude of the reduction in self-grooming (Sapap3 knockout mice; 1 mg/kg IP, pre-spray): 43.6%; magnitude of the reduction in self-grooming (Sapap3 knockout mice; 3 mg/kg IP, pre-spray): 80.5%; magnitude of the reduction in self-grooming (Sapap3 knockout mice; 10 mg/kg IP, pre-spray): 91.7%; reductions in self-grooming (Sapap3 knockout mice; 1, 3 and 10 mg/kg IP, post-spray): 66.9% to 77.6%; significantly reduced grooming through Day (Sapap3 knockout mice; single dose 0.32 mg/kg IP on Day 1): 5 days; significantly reduced grooming through Day (Sapap3 knockout mice; single dose 0.56 mg/kg IP on Day 1): 5 days; sustained efficacy lasting for (Sapap3 knockout mice; single dose of 3 mg/kg IP): 1 week; significantly reduced grooming through Day [3, 4]: 33 days
 | 14 | 7.68 | 7.68 | 7.68 | Cc1ccc(COC(=O)N2CC[C@H](CNc3nccn4cnnc34)C(F)(F)C2)cc1 [E1-1.2^B′] |  |  |  |  |  |  | markedly reduced excessive self-grooming |  |  |  | magnitude of the reduction in self-grooming (Sapap3 knockout mice; 3 mg/kg IP, 20 min postdose, pre- and post-spray): 70%-80%; magnitude of the reduction in self-grooming (Sapap3 knockout mice; 10 mg/kg IP, 20 min postdose, pre- and post-spray): > 90%; magnitude of the reduction in self-grooming (Sapap3 knockout mice; 30 mg/kg IP, 20 min postdose, pre- and post-spray): > 90%; pIC50 (human NR1/NR2A): < 5.00
about 8 hours | 32 | 7.54 | 7.54 | 7.54 | Cc1ccc(COC(=O)N2CC[C@H](CNc3cnc(C)cn3)C(F)(F)C2)cc1 [E1-21.26^B′] |  |  |  | significantly reduced grooming | without tachyphylaxis | 5 | significantly reduced grooming |  |  |  | effects lasting through Day after the fourth and final dose on Day 29 (Sapap3 knockout mice; 3 mg/kg IP on Days 1, 15, 22, 29): 40 days; effects lasting through Day after the fourth and final dose on Day 29 (Sapap3 knockout mice; 10 mg/kg IP on Days 1, 15, 22, 29): 43 days; significant reduction in grooming wore off by Day (Sapap3 knockout mice; first dose of 3 mg/kg IP): 8 days
 |  |  |  |  | Cc1ccc(COC(=O)N2CC[C@H](CNc3ncccn3)C(F)(F)C2)cc1 [E1-22.2^B′] | significantly reduced grooming | comparable to the level in the vehicle-treated group | significantly reduced grooming | significantly reduced grooming |  | 22 | significantly reduced grooming | 19 | significantly reduced grooming | 33 | pIC50 (CYP2D6; Table 1.4B): < 4.30
